The results in this text go back to US8217042B2, “Pyridopyrazines and their use as modulators of kinases” (Zentaris GmbH, priority 2005, dated 2012).

The target in one assay is T1, PI3Kalpha (Homo sapiens, UniProt P42336).
T1 construct: in some cases as full-length kinases, in some cases as truncated fragments; purchased Upstate 14-602
The experiment in a line: Cell-free kinase assay (ALPHA technology), PI3K-ALPHA. Conditions: 100 μM ATP, recombinant human kinase. It counts as biochemical. A digest of the protocol:
(§1)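 Recombinant GST- or His-tagged kinases (full-length or kinase-domain fragments); ALPHA bead detection read after overnight incubation. PI3Kalpha: 1 ng enzyme, 100 μM ATP, 20 μM PIP2, 1 h, pH 7.4 Hepes buffer, GST:Grp1 with biotinylated PIP3 detection; Erk2 read via anti-phospho-MBP. % inhibition versus no-ATP/no-substrate and no-compound controls, giving IC50.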

A further assay deals with T2, Erk2.
T2 construct: in some cases as full-length kinases, in some cases as truncated fragments; purchased Upstate 14-173
T2 sequence (P63085 whole entry, the tested form may be a part): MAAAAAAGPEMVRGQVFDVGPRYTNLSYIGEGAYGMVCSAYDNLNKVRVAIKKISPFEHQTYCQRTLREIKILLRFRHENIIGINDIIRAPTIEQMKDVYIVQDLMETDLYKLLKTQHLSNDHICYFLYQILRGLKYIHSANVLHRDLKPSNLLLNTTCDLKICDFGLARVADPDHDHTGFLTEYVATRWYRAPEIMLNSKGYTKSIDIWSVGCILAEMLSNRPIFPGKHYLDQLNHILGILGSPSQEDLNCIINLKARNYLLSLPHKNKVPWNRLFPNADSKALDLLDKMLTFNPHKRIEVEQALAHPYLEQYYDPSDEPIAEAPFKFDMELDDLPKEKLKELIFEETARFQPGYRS
The experiment in a line: Cell-free kinase assay (ALPHA technology), Erk2-ALPHA. It counts as biochemical. Conditions: 10 μM ATP, recombinant human kinase. The method in brief: as §1

The test system of another assay is Hct116. The experiment in a line: XTT assay, anti-proliferative action, Hct116. It counts as cell-based. Conditions: Homo sapiens, HCT-116, 45 h, Hct116 cells, 45 h incubation. As to the method: The principle of this test is based on the intracellular reduction of the tetrazolium dye XTT (sodium 3′-[1-(phenylaminocarbonyl)-3,4-tetrazolium]bis(4-methoxy-6-nitro)benzenenesulphonic acid, Sigma) to a formazan dye by mitochondrial dehydrogenases.
The dye is formed only by metabolically active cells; its photometrically measurable intensity is a quantitative indicator for the presence of living cells. The reduction in the dye formation as a result of incubation of the cells with substances serves as a parameter for the anti-proliferative action.
The tumour cell lines (ATCC) were seeded in 96-well microtitre plates in a defined cell count (5000 cells/well for BxPC3 and Hct116; 10 000 cells/well for MDA MB468), and then incubated overnight in an incubator at 37° C., 5% CO2 and 95% air humidity. The test substances were made up as stock solutions (10 mM) in DMSO. […] The cell plates were then incubated for 45 h in an incubator at 37° C., 5% CO2 and 95% air humidity.
For the detection reaction, the XTT substrate was admixed with PMS (N-methyldibenzopyrazine methylsulphate, Sigma) and added to the cells, so as to result in a final concentration of 325 μg of XTT/ml and 2.5 μg PMS/ml. The mixture was then incubated for 3 h at 37° C., 95% air humidity. Subsequently the formazan salt formed by cellular dehydrogenases was quantified at an absorption of 490 nm.
The evaluation of the % inhibition values was done by means of the following formula from the values for the optical densities measured in each case at 490 nm:
The controls were determined 8 times each, the substance samples twice each. 0% control contained no cells; the 100% control contained no test substance. The EC50 values were determined with GraphPadPrism.

Each structure is given as a SMILES string.

T1 sequence (P42336 whole entry, the tested form may be a part): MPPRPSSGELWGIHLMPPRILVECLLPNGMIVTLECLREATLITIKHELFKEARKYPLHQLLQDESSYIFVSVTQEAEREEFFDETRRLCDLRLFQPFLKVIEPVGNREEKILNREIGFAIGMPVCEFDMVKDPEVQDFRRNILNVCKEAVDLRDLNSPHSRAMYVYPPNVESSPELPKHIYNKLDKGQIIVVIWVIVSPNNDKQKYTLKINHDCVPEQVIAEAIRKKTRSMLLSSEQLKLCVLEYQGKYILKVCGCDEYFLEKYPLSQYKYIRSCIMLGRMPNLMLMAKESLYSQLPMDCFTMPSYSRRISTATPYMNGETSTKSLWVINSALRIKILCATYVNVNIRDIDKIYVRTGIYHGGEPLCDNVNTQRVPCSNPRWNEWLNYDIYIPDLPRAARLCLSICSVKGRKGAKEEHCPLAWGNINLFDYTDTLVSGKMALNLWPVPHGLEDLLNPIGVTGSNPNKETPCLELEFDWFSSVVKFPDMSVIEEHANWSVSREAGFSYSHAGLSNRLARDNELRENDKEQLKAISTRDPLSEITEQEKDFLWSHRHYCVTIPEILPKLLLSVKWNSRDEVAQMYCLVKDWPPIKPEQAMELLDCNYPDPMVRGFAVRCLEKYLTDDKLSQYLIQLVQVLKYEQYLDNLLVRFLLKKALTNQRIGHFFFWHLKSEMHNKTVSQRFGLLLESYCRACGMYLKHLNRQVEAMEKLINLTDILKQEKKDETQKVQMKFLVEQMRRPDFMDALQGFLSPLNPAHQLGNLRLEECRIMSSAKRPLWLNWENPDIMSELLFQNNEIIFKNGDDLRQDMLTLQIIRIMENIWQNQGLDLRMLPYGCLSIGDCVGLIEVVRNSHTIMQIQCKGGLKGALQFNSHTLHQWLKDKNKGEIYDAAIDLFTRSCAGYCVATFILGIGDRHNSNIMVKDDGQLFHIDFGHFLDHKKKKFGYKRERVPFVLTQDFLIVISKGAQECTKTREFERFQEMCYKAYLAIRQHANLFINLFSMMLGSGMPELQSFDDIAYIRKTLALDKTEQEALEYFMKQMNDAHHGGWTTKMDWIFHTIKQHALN
T1 sequence (P27986 whole entry partner, the tested form may be a part): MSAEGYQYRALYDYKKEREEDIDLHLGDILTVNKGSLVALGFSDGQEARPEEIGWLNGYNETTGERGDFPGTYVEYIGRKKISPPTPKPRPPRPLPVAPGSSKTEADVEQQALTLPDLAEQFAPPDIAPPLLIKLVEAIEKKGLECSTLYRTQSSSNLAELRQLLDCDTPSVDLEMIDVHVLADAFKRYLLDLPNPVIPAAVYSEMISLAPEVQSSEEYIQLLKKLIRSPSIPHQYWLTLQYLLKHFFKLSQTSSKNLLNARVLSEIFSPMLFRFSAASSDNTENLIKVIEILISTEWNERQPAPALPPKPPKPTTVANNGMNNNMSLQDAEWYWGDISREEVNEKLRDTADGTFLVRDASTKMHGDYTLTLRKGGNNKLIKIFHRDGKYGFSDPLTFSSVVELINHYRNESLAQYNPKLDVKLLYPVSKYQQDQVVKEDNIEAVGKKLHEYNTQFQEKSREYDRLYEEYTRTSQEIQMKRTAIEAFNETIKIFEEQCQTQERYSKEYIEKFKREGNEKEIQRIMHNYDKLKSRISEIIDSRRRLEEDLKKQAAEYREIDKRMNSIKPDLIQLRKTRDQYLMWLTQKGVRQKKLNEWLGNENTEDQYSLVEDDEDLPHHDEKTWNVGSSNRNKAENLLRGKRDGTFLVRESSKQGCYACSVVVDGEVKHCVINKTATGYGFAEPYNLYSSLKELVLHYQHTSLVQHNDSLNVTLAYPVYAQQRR

Regarding `CCNC(=O)Nc1ccc2ncc(Nc3ccc(C)c(NS(C)(=O)=O)c3)nc2n1` [Compound 49, N-{5-[6-(3-Ethylurea)pyrido[2,3-b]pyrazin-3-ylamino]-2-methylphenyl}methanesulphonamide], the IC50 on PI3Kalpha is 1.9 µM; on Erk2, 9.6 µM. Further, the EC50 with Hct116 is about 20 µM.

One may read the IC50 as the concentration that gives 50% inhibition. Usually EC50 stands for the concentration giving half of the maximal effect. High values mean a need for much substance, low ones an effect from little substance.
